In patent US8399466B2, “Composition for regenerative treatment of cartilage disease” (Mitsubishi Tanabe Pharma Corporation, priority 2001, dated 2013):

Experiments:
articular chondrocytes = assay: Increase of matrix production of articular chondrocytes (Alcian blue staining of proteoglycan); assay type: cell-based, rabbit; conditions: for Proteoglycan Production (%): cultivation until day 5, vehicle = 100; for matrix production promoting activity: summary of Table 1
Procedure: Four NZW line rabbits (Kitayama Labes., Co Ltd.; male; 4-week-old) were sacrificed with bleeding under ether anesthesia and femur knee joints were collected aseptically. The collected knee joints were stored in phosphate buffer (pH 7.2) containing 0.2% glucose and only the cortical layer of knee joint was scrapped with a surgical knife into a 50 ml tube containing phosphate buffer (pH 7.2) containing 0.2% glucose. The collected knee joint cortical layer was cut into as small sections as possible on a dish with a razor and shaken at 37° C. for 15 minutes in phosphate buffer containing 0.2% glucose, supplied with 10× trypsin-ethylenediamine tetraacetic acid (EDTA)·4 Na salt (GIBCO; Cat. No. 15400-054) (50 ml, with 100 mg of trypsin and 40 mg of EDTA·4Na; pH 7.2). After shaking, the sample was centrifuged (1,400 rpm) to collect precipitates, and the precipitates were washed twice with 40 ml of phosphate buffer containing 0.2% glucose. The washed precipitates were combined with 40 ml of serum-free α-minimum essential medium (MEM: GIBCO; Cat: No. 12571-063) containing 60 mg of collagenase for cell diffusion (Wako Pure Chemical Industries, Ltd., 034-10533) and transferred to a 100 ml beaker containing a sterilized stirrer bar. Under stirring with the stirrer bar, the collagenase digestion was carried on for about 1 hour in a CO2 incubator at 37° C. Cartilage fragments were removed from the collagenase-treated cells using a […] Cell Strainer ([FALCON; Cat. No. 2340]). To the residual treated cells was added 10 ml of α-MEM medium containing 10% fetal calf serum (FCS), and centrifuged (1,400 rpm). The precipitates were washed with 10% FCS-αMEM medium twice, suspended in appropriate volume of the same medium and the resultant suspension was seeded into collagen type II (Wako Pure Chemical Industries, Ltd., 033-13901)-coated plates (48 well) at 20,000 cells/well. On the next day, the medium was replaced with 10% FCS-αMEM medium.
When cells reached to confluent after the medium exchange procedure above, the medium for test group was replaced with test compound-containing medium (including 0.1% dimethylsulfoxide as a vehicle). As a medium to which a test compound is added, 10% FCS-αMEM medium containing 0.2 mM ascorbic acid was used. The day on which test compound-containing medium was added for the first time was defined as “day 1”. The medium exchange with the same medium was again conducted at day 3 and the cultivation continued until day 5. As to the control group, the medium was exchanged at the same time using the same medium as the test group except that it is free of test compound (containing vehicle only), and the cultivation was carried out in the same manner. After completion of cultivation, the supernatant was removed from the culture medium. Cells were fixed by addition of 0.25 ml of neutral buffer containing 4% paraformaldehyde and incubation for 2 hours. Cells were washed three times with 1 ml of phosphate buffer (pH 7.2) and then stained for 4 hours with 0.1% Alcian blue 8GX (Sigma; A3157) dissolved in 0.1 M hydrochloric acid, which Alcian blue selectively stains cartilage matrix proteoglycan. After staining, the cells were washed 3 times with 1 ml of phosphate buffer (pH 7.2). Alcian blue which had stained cartilage matrix was dissolved with 0.25 ml of aqueous 6 M guanidine hydrochloride solution and a portion of the solution was used to determine the absorbance at 620 nm. The amounts of Alcian blue used for staining was calculated from the absorbance, which in turn was used for the estimation of the amount of matrix (proteoglycan).

[1] = test system: gonarthrosis induced by partial excision of medial meniscus/abscission of bilateral collateral ligaments; assay: Regenerative healing effects on gonarthrosis induced by partial excision of medial meniscus/abscission of bilateral collateral ligaments; assay type: in vivo, rabbit; conditions: 1 μg in microsphere of Example 7-(1), intra-articular two and six weeks after operation; ten weeks after operation; control 18.86 ± 2.03
Procedure: Japanese White rabbits (male; 10-week-old; 7 rabbits/group) were housed for 16 days at room temperature (23±2° C.) and 55±15% humidity. During the housing period, the rabbits were free to access commercially available food (Oriental Bio Service; LRC4).
Under ether anesthesia, the right knee joint of each rabbit was excised and ½ portion of medial meniscus was isolated with double-edged small straight scissors. The bilateral collateral ligaments were also cut. After the operation, muscle and epidermal tissues were sutured and sterilized. Two weeks from the operation, under ether anesthesia, each rabbit of the test group (7 rabbits/group) was administered intra-articularly the drug-containing microsphere prepared in Example 7-(1), which contains 1 μg of Compound (2). The rabbit of the control group (7 rabbits/group) received the same amount of drug-free microsphere prepared in Control Example 2. […]
After wiping off the excess India Ink, the overhead surface image of the formalin-fixed tibial proximal end was imported into an analyzer, Image Analyzer (IMAGING RESEARCH, MICD imaging analyzer), with a stereomicroscope (OLYMPUS OPTICAL Co., Ltd. model SZX12-2111). […] The gross medial area was also measured and the percentage (%) (the degenerated area rate) of the degenerated medial area in the gross medial area was calculated.

| SMILES | Proteoglycan Production (%) (articular chondrocytes; 1 × 10^−5 M) | Proteoglycan Production (%) (articular chondrocytes; 1 × 10^−6 M) | matrix production promoting activity (articular chondrocytes) | Degenerated Area Rate (%) [1] |
| --- | --- | --- | --- | --- |
| CCOc1cc2cc(CO)c(CO)c(-c3ccnc(-n4nc(-c5cccnc5)c5ccccc5c4=O)c3)c2cc1OCC [Compound (2)] | 128% | 125% | exert matrix production promoting activity | 10.16 ± 1.35% |
| COc1ccc(C(=O)Nc2c(Cl)cncc2Cl)cc1OC1CCCC1 [Compound (11)] | – | 112% | exert matrix production promoting activity | – |
